According to publication PMC6709497, “Identification of Novel Trypanosoma cruzi Proteasome Inhibitors Using a Luminescence-Based High-Throughput Screening Assay” (Antimicrobial Agents and Chemotherapy, 2019):
Where two headings read alike, the source gives them in different places. Starred links: 1 amine or outer side, 2 acyl side, 3 side chain; linkers in the order of their positions; H or OH if unused. Non-standard residues stand in square brackets, D forms with d. Residues, ends and D or L forms follow the SMILES beside them. ξ: configuration not given here. *: point of attachment. aminoluciferin = aminoluciferin attached at the C-terminus (luminogenic reporter), O=C(O)[C@H]1CSC(c2nc3ccc(N*)cc3s2)=N1; Suc = O=C(CCC(=O)[*:2])[*:1]; Nva = CCC[C@H](N)C(=O)O; Cbz = O=C(OCc1ccccc1)*; ξL = CC(C)CC(N)C(=O)O

Key:
[1] = design: method as in PMID 28645201; conditions: cited from earlier work
[2] = target: T. cruzi proteasome caspase-like activity (Trypanosoma cruzi, UniProt V5BHX1); assay: Cell-free T. cruzi proteasome caspase-like activity luminescence assay; type: biochemical; conditions: n = 4; 20 μM Z-Nle-Pro-Nle-Asp-aminoluciferin
Sequence of T. cruzi proteasome caspase-like activity (V5BHX1 entry or part of it): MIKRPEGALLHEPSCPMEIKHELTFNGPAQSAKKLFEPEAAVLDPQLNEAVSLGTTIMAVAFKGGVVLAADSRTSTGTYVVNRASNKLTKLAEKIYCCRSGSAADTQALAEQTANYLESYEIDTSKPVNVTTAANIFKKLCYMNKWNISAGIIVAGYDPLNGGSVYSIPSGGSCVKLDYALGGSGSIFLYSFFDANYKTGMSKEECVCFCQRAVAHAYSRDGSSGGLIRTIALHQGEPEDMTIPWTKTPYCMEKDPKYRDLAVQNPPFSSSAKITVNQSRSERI
From the text: (§1) The commercially available Proteasome-Glo 3-substrate system and chymotrypsin-like assay kits (Promega; catalogue no. G8531 and G8622, respectively) were assembled according to the manufacturers’ protocols ([29]) unless otherwise stated. Briefly, Proteasome-Glo buffer was used to formulate the luciferin detection reagent (containing a recombinant thermostable luciferase enzyme) to approximately 0.35% (wt/vol) final assay concentration. The luciferin detection reagent was then mixed with Proteasome-Glo trypsin-, caspase-, or chymotrypsin-like reagents (comprising 15 μM Z-Leu-Arg-Arg-aminoluciferin (Z is benzyloxycarbonyl), 20 μM Z-Nle-Pro-Nle-Asp-aminoluciferin, or 20 μM suc-Leu-Leu-Val-Tyr-aminoluciferin substrate, respectively, at final assay concentrations), and the mixture was allowed to incubate at room temperature for 60 min prior to use. T. cruzi proteasome buffer comprised 50 mM Tris-HCl, pH 7.5, 10 mM sucrose, 5 mM MgCl2, 1 mM dithiothreitol, 2 mM ATP, 150 mM NaCl, 1 mM EDTA, and 0.05 mg/ml bovine serum albumin (BSA). T. cruzi strain Silvio X10/7 epimastigotes were maintained in vitro at 28°C in RTH-fetal calf serum (FCS) culture medium (RPMI 1640 supplemented with 0.4% Trypticase peptone, 0.017 M HEPES, 25 μM hemin, 10% heat-inactivated FCS). Biochemical cell-free assays were performed in an 8-μl final assay volume using 384-well white low-volume plates (Greiner; catalogue no. 784904), and cellular assays were performed in a 50-μl final assay volume using 384-well standard volume plates (Greiner; catalogue no. 781098). Luminescence was read using an EnVision 2102 Multilabel Reader (PerkinElmer, USA) with 0.2-s per well reading time, unless otherwise specified. DMSO or compound was added to the assay plates using Echo acoustic dispensers (Labcyte, USA). Reagent addition for high-throughput screening assays was performed using an Xrd-384 liquid dispenser (FluidX, United Kingdom) and a BioFill Solo/Xrd-384 8-channel resin nozzle (0.5- to 200-μl) tubing cartridge (FluidX; catalogue no. 34-1003). Data analysis was performed using SigmaPlot 12.5 software unless otherwise stated. Z factor values were calculated using the following equation: Z factor = 1 − ({3 × [1.483 × (RLU MAD Max)]} + {3 × [1.483 × (RLU MAD Min)]})/(median RLU Max − median RLU Min), where MAD is the median absolute deviation, Max is the maximum-effect control samples, and Min is the minimum-effect control samples.
(§2) Next, 4 μl of luciferin detection and Proteasome-Glo chymotrypsin-, caspase-, or trypsin-like reagent mixtures were added to initiate the biochemical reaction. The reaction was allowed to proceed at room temperature for 60 min, after which the luminescence was read. Data were acquired from 4 independent replicates (n = 4). Relative luminescence unit (RLU) data were normalized to percent inhibition values relative to 100% effect (DMSO, 1% [vol/vol] final assay concentration in the absence of T. cruzi proteasome enzyme) and 0% effect (DMSO, 1% [vol/vol] final assay concentration with T. cruzi proteasome enzyme) control populations using Microsoft Excel 2013 software. IC50 values were calculated by fitting the concentration-response data for each independent replicate separately to either a four-parameter logistic model or a seven-parameter logistic model with the bottom curve plateau parameter constrained to zero, as shown below.
The four-parameter logistic model is as follows: y=Min+Max−Min/1+(x/IC50)^−Hillslope […]

[3] = test system: T. cruzi strain Silvio X10/7 epimastigotes; assay: Cellular T. cruzi epimastigote viability assay; type: cell-based, Trypanosoma cruzi; conditions: 96 h; for EC50: Trypanosoma cruzi, read-out: Cellular pEC50 ± SD (converted)
Description: For the cell viability readout, BacTiter-Glo microbial cell viability reagent (Promega; catalogue no. G8230) was added to each well (25 μl) and incubated at room temperature for 5 min. The plates were then sealed with clear film, and the luminescence was read using a Victor 3 (PerkinElmer, USA) or Pherastar FS (BMG Labtech, Germany) plate reader with a 0.5-s per well reading time. Data for epoxomicin were obtained from three independent replicates (n = 3), and data for all the remaining compounds were acquired from four independent replicates (n = 4). RLU data were normalized to percent inhibition values relative to 100% effect (Nifurtimox) and 0% effect (DMSO; 1% [vol/vol] final assay concentration) control populations. Normalized data for each independent replicate were fitted separately to a four-parameter logistic regression model, and pEC50 {i.e., −log(EC50[M])} values were calculated using IBDS ActivityBase 8.1.2.12 software, after which a mean pEC50 value for each compound was calculated.

[4] = target: T. cruzi proteasome chymotrypsin-like activity (Trypanosoma cruzi, UniProt V5BU39); assay: Cell-free T. cruzi proteasome chymotrypsin-like activity luminescence assay (commercial inhibitors); type: biochemical
Sequence of T. cruzi proteasome chymotrypsin-like activity (V5BU39 entry or part of it): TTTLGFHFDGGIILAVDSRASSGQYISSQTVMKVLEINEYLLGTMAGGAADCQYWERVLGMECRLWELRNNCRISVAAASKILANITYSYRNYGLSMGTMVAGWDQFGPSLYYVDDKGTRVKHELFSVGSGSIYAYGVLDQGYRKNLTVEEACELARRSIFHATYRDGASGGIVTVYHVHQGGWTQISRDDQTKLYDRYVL
Sequence of T. cruzi proteasome chymotrypsin-like activity (A0A2V2VW62 entry or part of it, further chain): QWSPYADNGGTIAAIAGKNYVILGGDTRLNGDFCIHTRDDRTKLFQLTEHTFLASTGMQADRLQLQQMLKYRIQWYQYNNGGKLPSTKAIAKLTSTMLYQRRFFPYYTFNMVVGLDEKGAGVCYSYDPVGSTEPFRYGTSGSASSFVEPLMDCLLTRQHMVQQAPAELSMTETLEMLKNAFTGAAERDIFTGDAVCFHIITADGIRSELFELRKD
Sequence of T. cruzi proteasome chymotrypsin-like activity (V5C017 entry or part of it, further chain): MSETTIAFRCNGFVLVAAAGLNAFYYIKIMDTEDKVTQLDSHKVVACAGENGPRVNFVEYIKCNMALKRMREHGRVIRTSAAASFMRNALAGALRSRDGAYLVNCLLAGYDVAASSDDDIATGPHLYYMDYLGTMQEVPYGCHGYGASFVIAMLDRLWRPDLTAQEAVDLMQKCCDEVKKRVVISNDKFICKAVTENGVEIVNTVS
From the text: as §1, with “T. cruzi strain Silvio X10/7 epimastigotes were maintained in vitro at 28°C in RTH-fetal calf serum (FCS) culture medium (RPMI 1640 supplemented with 0.4% Trypticase peptone, 0.017 M HEPES, 25 μM hemin, 10% heat-inactivated FCS).” left out
as §2
The four-parameter logistic model is as follows: y=Min+Max−Min/1+(x/IC50)^−Hillslope
The seven-parameter logistic model is as follows: y=(Max_1+{Min−Max_1/1+[(x/IC50_1)^Hillslope_1]})+(Max_2−{Max_2/1+[(x/IC50_2)^Hillslope_2]}) […]

[5] = target: T. cruzi proteasome trypsin-like activity (Trypanosoma cruzi, UniProt V5BCU3+V5BGL9); assay: Cell-free T. cruzi proteasome trypsin-like activity luminescence assay; type: biochemical; conditions: n = 4; 15 μM Z-Leu-Arg-Arg-aminoluciferin
Sequence of T. cruzi proteasome trypsin-like activity (V5BGL9 entry or part of it): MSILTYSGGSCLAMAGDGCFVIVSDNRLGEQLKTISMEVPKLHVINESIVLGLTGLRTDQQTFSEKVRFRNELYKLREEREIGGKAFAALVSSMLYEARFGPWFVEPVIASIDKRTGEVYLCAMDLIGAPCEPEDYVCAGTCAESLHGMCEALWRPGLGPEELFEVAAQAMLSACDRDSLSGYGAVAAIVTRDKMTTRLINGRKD
Sequence of T. cruzi proteasome trypsin-like activity (V5BCU3 entry or part of it): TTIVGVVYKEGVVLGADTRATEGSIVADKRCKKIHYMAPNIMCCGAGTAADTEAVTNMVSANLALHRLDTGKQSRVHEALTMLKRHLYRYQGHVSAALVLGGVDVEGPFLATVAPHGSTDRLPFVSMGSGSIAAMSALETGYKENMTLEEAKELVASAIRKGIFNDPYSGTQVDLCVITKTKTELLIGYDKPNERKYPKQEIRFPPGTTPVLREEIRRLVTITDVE
From the text: as §1, with “T. cruzi strain Silvio X10/7 epimastigotes were maintained in vitro at 28°C in RTH-fetal calf serum (FCS) culture medium (RPMI 1640 supplemented with 0.4% Trypticase peptone, 0.017 M HEPES, 25 μM hemin, 10% heat-inactivated FCS).” left out, “Reagent addition for high-throughput screening assays was performed using an Xrd-384 liquid dispenser (FluidX, United Kingdom) and a BioFill Solo/Xrd-384 8-channel resin nozzle (0.5- to 200-μl) tubing cartridge (FluidX; catalogue no. 34-1003). Data analysis was performed using SigmaPlot 12.5 software unless otherwise stated.” left out
as §2, with “Data were acquired from 4 independent replicates (n = 4).” left out, “below. […]” for “below.”

T. cruzi proteasome = assay: Kinetic-parameter (Km) determination for chymotrypsin-like substrate; type: biochemical, Trypanosoma cruzi; conditions: 95% CI = 78.8 to 108.4 μM; 60-min reaction; n = 3; read-out: apparent steady-state Km
Description: Assay linearity and the optimal amount of T. cruzi proteasome for screening was determined by first serially diluting (1 in 2; CMF = 0.5) the proteasome stock solution in proteasome buffer to generate 10 additional concentrations. Next, 4 μl of each of the T. cruzi proteasome solutions was added to 4 μl of the luciferin detection and Proteasome-Glo chymotrypsin-like reagent mixture. Luminescence was read immediately and then every 90 s for 75 min. Data were acquired from 5 technical replicates (n = 5). To calculate the Michaelis constant (Km) and identify the optimal amount of chymotrypsin-like suc-Leu-Leu-Val-Tyr-aminoluciferin substrate for screening, the Proteasome-Glo chymotrypsin-like assay (Promega; catalogue no. G8622) luciferin detection reagent (comprising luciferase enzyme in Proteasome-Glo buffer) was prepared according to the manufacturers’ protocol ([29]). A 1,200 μM solution (600 μM final assay concentration) of the substrate was prepared and subsequently serially diluted (1 in 2; CMF = 0.5) using the luciferin detection reagent to generate 8 additional concentrations. Next, 4 μl of each of the luciferin detection and substrate solution mixtures was added to 4 μl of partially purified T. cruzi proteasome that was diluted 1 in 4 (CMF = 0.25) from the original stock using proteasome buffer. Luminescence was read immediately and then every 90 s for 75 min. […]

[6] = test system: proteasome chymotrypsin-like activity; design: method as in PMID 25308265; conditions: similar assay platform in a cellular system; read-out: Km, approximate value; cited from earlier work
[7] = BacTiter-Glo viability readout, n = 4 (epoxomicin n = 3)

Molecule | Cell-free pIC50 ± SD, Caspase-like [2] [M] | EC50 [3, 7] [nM] | chymotrypsin-like activity dose-response curve shape [4] | Cell-free pIC50 ± SD, Trypsin-like [5] [M] | further results
O=C(Cn1ccnc1[N+](=O)[O-])NCc1ccccc1 [Benznidazole, benznidazole] | – | – | – | – | treatment discontinuation rate due to side effects [1]: 10%
CC(C)C[C@H](NC(=O)[C@H](Cc1ccccc1)NC(=O)c1cnccn1)B(O)O [Bortezomib, bortezomib] | 7.16 ± 0.13 | 240 | biphasic | – | IC30 ([4]; concentration approximately equivalent to IC30, used for spiking test plates): ~4 nM; IC70 ([4]; concentration approximately equivalent to IC70, used for spiking test plates): ~79 nM
CC[C@H](C)[C@H](NC(=O)[C@H]([C@@H](C)CC)N(C)C(C)=O)C(=O)N[C@H](C(=O)N[C@@H](CC(C)C)C(=O)[C@@]1(C)CO1)[C@@H](C)O [Epoxomicin, epoxomicin] | 5.85 ± 0.05 | – | – | 6.10 ± 0.06 | EC50 [3]: 63.1 nM
CC(C)C[C@H](NC(=O)CNC(=O)c1cc(Cl)ccc1Cl)B(O)O [Ixazomib, ixazomib] | 7.49 ± 0.17 | 708 | biphasic | 5.51 ± 0.07 | –
CCC[C@@H](C=O)NC(=O)C(CC(C)C)NC(=O)[C@H](CC(C)C)NC(=O)OCc1ccccc1 (stereo partly drawn) [MG115] (Cbz-Leu-[ξL]-[Nva]-aldehyde) | 4.91 ± 0.10 | 4370 | – | 4.87 ± 0.09 | –
CC(C)C[C@@H](C=O)NC(=O)[C@H](CC(C)C)NC(=O)[C@H](CC(C)C)NC(=O)OCc1ccccc1 [MG132] (Cbz-Leu-Leu-Leu-aldehyde) | 6.01 ± 0.09 | – | biphasic | 4.88 ± 0.14 | EC50 [3]: 2450 nM
oprozomib | – | – | – | – | Cellular pEC50 ± SD [3, 7]: 6.53 ± 0.32 M
succinyl-Leu-Leu-Val-Tyr-aminoluciferin (Suc-LLVY-aminoluciferin; SMILES CC(C)C[C@H](NC(=O)CCC(=O)O)C(=O)N[C@@H](CC(C)C)C(=O)N[C@H](C(=O)N[C@@H](Cc1ccc(O)cc1)C(=O)Nc1ccc2nc(C3=N[C@@H](C(=O)O)CS3)sc2c1)C(C)C) [suc-Leu-Leu-Val-Tyr-aminoluciferin, luminogenic chymotrypsin-like peptide substrate] | – | – | – | – | Km (T. cruzi proteasome): 93.5 µM; Km [6]: ~60 µM
